Activity calls are given as the source filed them. How the calls were made is not given here.

In PubChem BioAssay AID1259408 (Genetic Toxicology Data Bank (GENE-TOX), 2018) one finds mutagenic call and call data, which are given here for 13 compounds.

The data set has as its system GENE-TOX genotoxicity assays, various organisms and cells. Nature of the data set: GENE-TOX mutagenicity studies. The following applies: for call: Assay Type: In vivo carcinogenicity studies, Assay Code: CCG+. The text has this: GENE-TOX provides genetic toxicology (mutagenicity) test data from expert peer review of open scientific literature for more than 3,000 chemicals from the United States Environmental Protection Agency (EPA). GENE-TOX was established to select assay systems for evaluation, review data in the scientific literature, and recommend proper testing protocols and evaluation procedures for these systems.
GENE-TOX covers the years 1991 - 1998. It is no longer updated.
This is an archive assay for GENE-TOX mutagenicity studies.

Where [1] appears, read: Species/Cell Type: Escherichia coli polA (W3119 vs P3478), Assay Type: Rec-assay, DNA effects (bacterial DNA repair), Assay Code: RE1T, Evaluation Type: Evaluation A (Pre-1980).
The mark [2] stands for this setting: Species/Cell Type: Nonhuman, Evaluation Type: Evaluation A (Pre-1980).
The mark [3] stands for this setting: Species/Cell Type: Salmonella typhimurium (one or more of the five standard strains: TA98, TA100, TA1535, TA1537, and TA1538), Assay Type: Histidine reverse gene mutation, Ames assay, Assay Code: SAL+*, Activation: With metabolic activation, Evaluation Type: Evaluation A (Pre-1980).
Where [4] appears, read: Species/Cell Type: Salmonella typhimurium (one or more of the five standard strains: TA98, TA100, TA1535, TA1537, and TA1538), Assay Type: Histidine reverse gene mutation, Ames assay, Assay Code: SAL+, Evaluation Type: Evaluation A (Pre-1980).

With `CN(C)N=O`, the mutagenic call was “active; positive” (Species/Cell Type: Arabidopsis species, Assay Type: Gene mutation, Assay Code: ARM+D, Dose Response: With dose response, Evaluation Type: Evaluation A (Pre-1980)); “active; positive” (Species/Cell Type: Chinese hamster lung (V79) cells, Assay Type: Forward gene mutation at the HPRT or ouabain locus, Assay Code: V79+, Evaluation Type: Evaluation A (Pre-1980)); “active; positive” (Species/Cell Type: Chinese hamster ovary (CHO) cells, Assay Type: Forward gene mutation at the HPRT locus, Assay Code: CHO+*, Activation: With metabolic activation, Evaluation Type: Evaluation B (Post-1980)); “active; positive” (Species/Cell Type: Chinese hamster ovary (CHO) cells, Assay Type: Forward gene mutation at the HPRT locus, Assay Code: CHO+D, Dose Response: With dose response, Evaluation Type: Evaluation A (Pre-1980)); “active; positive” (Species/Cell Type: Drosophila melanogaster, Assay Type: Sex-linked recessive lethal gene mutation, Assay Code: SRL+, Evaluation Type: Evaluation A (Pre-1980)); “active; positive” (Species/Cell Type: Drosophila melanogaster, Sex: Male, Assay Type: Heritable translocation test, chromosome aberrations, Assay Code: DHT+, Evaluation Type: Evaluation A (Pre-1980)). The mutagenic call was “active; positive” (Species/Cell Type: Escherichia coli WP2, Assay Type: Tryptophan reverse gene mutation, Assay Code: WP2+*, Activation: With metabolic activation, Evaluation Type: Evaluation A (Pre-1980)); “active; positive” (Species/Cell Type: Escherichia coli WP2 UVRA, Assay Type: Tryptophan reverse gene mutation, Assay Code: WPU+*, Activation: With metabolic activation, Evaluation Type: Evaluation A (Pre-1980)); “active; positive” (Species/Cell Type: Escherichia coli polA (W3110 vs P3478), Assay Type: Rec-assay, DNA effects (bacterial DNA repair), Assay Code: RE2+, Evaluation Type: Evaluation A (Pre-1980)); “no conclusion” under setting [1]; “no conclusion” (Species/Cell Type: Fischer rat embryo (RLV/1706) cells, Assay Type: Cell transformation, viral enhanced, Assay Code: CTRT, Evaluation Type: Evaluation A (Pre-1980)); “active; positive” (Species/Cell Type: Human diploid fibroblasts, Assay Type: Unscheduled DNA synthesis (UDS) in vitro, DNA effects, Assay Code: UDH+D, Dose Response: With dose response, Evaluation Type: Evaluation A (Pre-1980)). For the same compound, the mutagenic call runs as follows: (Species/Cell Type: Human lymphocytes, Assay Type: Sister-chromatid exchange (SCE) in vitro, Assay Code: SCL+D*, Activation: With metabolic activation, Dose Response: With dose response, Evaluation Type: Evaluation B (Post-1980)) “active; positive”; (Species/Cell Type: Human, Assay Type: Sister-chromatid exchange (SCE) in vitro, Assay Code: SC1+D*, Activation: With metabolic activation, Dose Response: With dose response, Evaluation Type: Evaluation B (Post-1980)) “active; positive”; (Species/Cell Type: Mammalian germ cells, Sex: Male, Assay Type: Chromosome aberrations in vivo, Assay Code: CY9-, Evaluation Type: Evaluation A (Pre-1980)) “inactive; negative”; (Species/Cell Type: Mammalian polychromatic erythrocytes, Assay Type: Micronucleus test, chromosome aberrations, Assay Code: MNT+, Evaluation Type: Evaluation A (Pre-1980)) “active; positive”; (Species/Cell Type: Mouse germ cells, Sex: Male, Assay Type: Unscheduled DNA synthesis (UDS) in vivo, DNA effects, Assay Code: UDT-, Evaluation Type: Evaluation A (Pre-1980)) “inactive; negative”; (Species/Cell Type: Mouse lymphoma (L5178Y) cells, Assay Type: Forward gene mutation at the thymidine kinase (TK) locus, chromosome aberrations, Assay Code: L51+*, Activation: With metabolic activation, Evaluation Type: Evaluation A (Pre-1980)) “active; positive”. Besides, the mutagenic call (Species/Cell Type: Mouse, Sex: Female, Assay Type: Spot test, gene mutation, Assay Code: MSTT, Evaluation Type: Evaluation A (Pre-1980)) was “no conclusion”; the mutagenic call (Species/Cell Type: Mouse, Sex: Male, Assay Type: Sperm morphology, Assay Code: SPI-, Evaluation Type: Evaluation A (Pre-1980)) is “inactive; negative”; the mutagenic call (Species/Cell Type: Neurospora crassa, Assay Type: Forward gene mutation, Assay Code: NEF+*, Activation: With metabolic activation, Evaluation Type: Evaluation A (Pre-1980)) is “active; positive”; the mutagenic call (Species/Cell Type: Neurospora crassa, Assay Type: Reverse gene mutation, Assay Code: NER+, Evaluation Type: Evaluation A (Pre-1980)) was “active; positive”; the mutagenic call (Species/Cell Type: Nonhuman, Assay Type: Chromosome aberrations in vitro, Assay Code: CY&+D*, Activation: With metabolic activation, Dose Response: With dose response, Evaluation Type: Evaluation A (Pre-1980)) is “active; positive”; the mutagenic call (Species/Cell Type: Nonhuman, Assay Type: Sister-chromatid exchange (SCE) in vitro, Assay Code: SC2+D, Dose Response: With dose response, Evaluation Type: Evaluation A (Pre-1980)) was “active; positive”. The mutagenic call is “active; positive” (Species/Cell Type: Nonhuman, Assay Type: Sister-chromatid exchange (SCE) in vivo, Assay Code: SC3+D, Dose Response: With dose response, Evaluation Type: Evaluation A (Pre-1980)); “active; positive” (Species/Cell Type: Rat primary hepatocytes, Assay Type: Unscheduled DNA synthesis (UDS) in vitro, DNA effects, Assay Code: UDP+, Evaluation Type: Evaluation A (Pre-1980)); “no conclusion” (Species/Cell Type: Rodents, Sex: Male, Assay Type: Dominant lethal test, Assay Code: DLTT, Evaluation Type: Evaluation A (Pre-1980)); “active; positive” (Species/Cell Type: Saccharomyces cerevisiae, Assay Type: Forward gene mutation, Assay Code: YEF+*, Activation: With metabolic activation, Evaluation Type: Evaluation A (Pre-1980)); “active; positive” (Species/Cell Type: Saccharomyces cerevisiae, Assay Type: Mitotic recombination or gene conversion, Assay Code: YEC+*, Activation: With metabolic activation, Evaluation Type: Evaluation A (Pre-1980)); “active; positive” (Species/Cell Type: Saccharomyces cerevisiae, Assay Type: Mitotic recombination or gene conversion, Assay Code: YEH+, Evaluation Type: Evaluation A (Pre-1980)). Besides, the mutagenic call was “active; positive” under setting [3]; “active; positive” (Species/Cell Type: Salmonella typhimurium, Escherichia coli, Neurospora crassa, Saccharomyces cerevisiae, Chinese hamster ovary (CHO) and l, Assay Type: Forward and reverse gene mutation, chromosome aberrations, mitotic recombination and gene conversion, DNA effects, host-, Assay Code: HM4+, Evaluation Type: Evaluation A (Pre-1980)); “active; positive” (Species/Cell Type: Salmonella typhimurium, Assay Type: Forward and reverse gene mutation, body fluid assay, Assay Code: BFU+, Evaluation Type: Evaluation A (Pre-1980)); “active; positive” (Species/Cell Type: Schizosaccharomyces pombe, Assay Type: Forward gene mutation, Assay Code: YEY+*, Activation: With metabolic activation, Evaluation Type: Evaluation A (Pre-1980)); “no conclusion” (Species/Cell Type: Syrian hamster embryo (SHE) cells, Assay Type: Cell transformation, clonal assay, Assay Code: CTCT, Evaluation Type: Evaluation A (Pre-1980)). Moreover, the call under setting [2] was “active; positive”.

For the compound `OCc1ccccc1`, the mutagenic call (Species/Cell Type: Escherichia coli polA (W3119 vs P3478), Assay Type: Rec-assay, DNA effects (bacterial DNA repair), Assay Code: RE1-, Evaluation Type: Evaluation A (Pre-1980)) is “inactive; negative”.

Take `C=COCC`: the mutagenic call (Species/Cell Type: Nonhuman, Assay Type: Sister-chromatid exchange (SCE) in vitro, Assay Code: SC2+, Evaluation Type: Evaluation B (Post-1980)) is “active; positive”.

Regarding `O=C1N(CCO)CCN1/N=C/c1ccc([N+](=O)[O-])o1`, the mutagenic call under setting [4] is “active; positive”.

As for `CC1CN(N=O)CC(C)O1` (stereo not drawn), the mutagenic call under setting [3] is “active; positive”.

On to `C[C@H]1O[C@@H](O[C@H]2[C@@H](O)C[C@H](O[C@H]3[C@@H](O)C[C@H](O[C@H]4CC[C@@]5(C)[C@H](CC[C@@H]6[C@@H]5C[C@@H](O)[C@]5(C)[C@@H](C7=CC(=O)OC7)CC[C@]65O)C4)O[C@@H]3C)O[C@@H]2C)C[C@H](O)[C@@H]1O`, for which the mutagenic call under setting [1] is recorded as “no conclusion”.

Turning to `CCCCN(CCCCO)N=O`, the mutagenic call under setting [1] is recorded as “no conclusion”; the mutagenic call (Species/Cell Type: Nonhuman, Assay Type: Chromosome aberrations in vitro, Assay Code: CY&-, Evaluation Type: Evaluation A (Pre-1980)) is “inactive; negative”; the mutagenic call (Species/Cell Type: Nonhuman, Assay Type: Sister-chromatid exchange (SCE) in vitro, Assay Code: SC2+D, Dose Response: With dose response, Evaluation Type: Evaluation B (Post-1980)) is “active; positive”; the mutagenic call (Species/Cell Type: Nonhuman, Assay Type: Sister-chromatid exchange (SCE) in vitro, Assay Code: SC2T, Evaluation Type: Evaluation A (Pre-1980)) is reported as “no conclusion”; the mutagenic call under setting [4] was “active; positive”. For the same compound, the call under setting [2] was “active; positive”.

Take `OCCCCO`: the mutagenic call (Species/Cell Type: Drosophila melanogaster, Assay Type: Sex-linked recessive lethal gene mutation, Assay Code: SRLT, Evaluation Type: Evaluation A (Pre-1980)) was “no conclusion”.

For the compound `Cc1ccc(N=Nc2ccc(N(C)C)cc2)cc1`, the mutagenic call (Species/Cell Type: Rat primary hepatocytes, Assay Type: Unscheduled DNA synthesis (UDS) in vitro, DNA effects, Assay Code: UDP-, Evaluation Type: Evaluation A (Pre-1980)) was “inactive; negative”.

In the case of `[Cl][Ir-2]([Cl])([Cl])([Cl])([Cl])[Cl]`, the mutagenic call (Species/Cell Type: Bacillus subtilis (H17 vs M45), Assay Type: Rec-assay, spot test, DNA effects (bacterial DNA repair), Assay Code: REW+, Evaluation Type: Evaluation A (Pre-1980)) was “active; positive”.

As for `Cc1c2ccccc2c(C)c2c1ccc1cccc(F)c12`, the mutagenic call (Species/Cell Type: Chinese hamster lung (V79) cells, Assay Type: Forward gene mutation at the HPRT or ouabain locus, Assay Code: V79-*, Activation: With metabolic activation, Evaluation Type: Evaluation A (Pre-1980)) is “inactive; negative”.

As to `c1cncc(C2=NCCC2)c1`, the mutagenic call (Species/Cell Type: Nonhuman, Assay Type: Sister-chromatid exchange (SCE) in vitro, Assay Code: SC2T, Evaluation Type: Evaluation B (Post-1980)) is “no conclusion”.

Consider `CS(=O)(=O)OC[C@H](O)[C@@H]1CO1`, for which the mutagenic call (Species/Cell Type: Allium cepa, Assay Type: Chromosome aberrations, Assay Code: ALC+D, Dose Response: With dose response, Evaluation Type: Evaluation A (Pre-1980)) was “active; positive”.
